Laboratory results taken from US20250230193A1, “CYCLIC COMPOUND HAVING SELECTIVE KRAS INHIBITORY EFFECT ON HRAS AND NRAS” (CHUGAI SEIYAKU KABUSHIKI KAISHA, priority 2022, published 2025).
Where a SMILES comes first, the peptide text is derived from it. Bridges are numbered along the chain shown (N, C = ends). [ ]: non-standard residue; d: D form. The star is where a group is joined. hPhe(3-Cl-4-CF3) = N[C@@H](CCc1ccc(C(F)(F)F)c(Cl)c1)C(=O)O; NPrPhe(4-CF3) = CCCN[C@@H](Cc1ccc(C(F)(F)F)cc1)C(=O)O; Morpholine(3S-CO) = O=C(O)[C@@H]1COCCN1; NMeGly(cPent) = CN[C@H](C(=O)O)C1CCCC1; NMeD = CN[C@@H](CC(=O)O)C(=O)O; NMeL = CN[C@@H](CC(C)C)C(=O)O; Morpholide = C1CN(*)CCO1; Ac5c = NC1(C(=O)O)CCCC1; Sar = CNCC(=O)O

Experiments:
[1] = biological target: GDP-bound NRAS wild-type protein (Homo sapiens, UniProt P01111); test: Binding to NRAS by surface plasmon resonance (SPR), Single Cycle Kinetics; details: SPR; for NRAS/KRAS (ratio of KD value for NRAS to KD value for KRAS) / NRAS/KRAS (ratio of KD value with respect to NRAS to KD value with respect to KRAS): GDP-bound NRAS wild-type vs GDP-bound KRAS wild-type
[2] = biological target: GDP-bound HRAS wild-type protein (Homo sapiens, UniProt P01112); test: Binding to HRAS by surface plasmon resonance (SPR), Single Cycle Kinetics; details: SPR; for HRAS/KRAS (ratio of KD value for HRAS to KD value for KRAS) / HRAS/KRAS (ratio of KD value with respect to HRAS to KD value with respect to KRAS): GDP-bound HRAS wild-type vs GDP-bound KRAS wild-type
GDP-bound HRAS wild-type protein, sequence (P01112 whole entry): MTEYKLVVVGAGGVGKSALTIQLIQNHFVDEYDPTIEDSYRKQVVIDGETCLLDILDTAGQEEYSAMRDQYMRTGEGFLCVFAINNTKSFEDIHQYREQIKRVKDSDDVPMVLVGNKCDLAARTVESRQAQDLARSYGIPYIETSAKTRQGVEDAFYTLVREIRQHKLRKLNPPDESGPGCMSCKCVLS

GDP-bound NRAS wild-type protein, sequence (P01111 whole entry): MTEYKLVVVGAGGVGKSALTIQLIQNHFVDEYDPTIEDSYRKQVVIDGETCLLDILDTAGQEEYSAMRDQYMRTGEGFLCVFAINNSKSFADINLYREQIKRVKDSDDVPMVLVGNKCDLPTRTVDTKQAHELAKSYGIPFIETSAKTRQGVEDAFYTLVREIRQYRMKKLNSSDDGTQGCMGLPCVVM

With `CCCN1C(=O)CN(C)C(=O)CN(C)C(=O)[C@H]([C@@H](C)CC)NC(=O)[C@H](CC(C)C)N(C)C(=O)C[C@@H](C(=O)N2CCOCC2)N(C)C(=O)[C@H](C2CCCC2)N(C)C(=O)C2(CCCC2)NC(=O)[C@@H]2COCCN2C(=O)[C@H](CCc2ccc(C(F)(F)F)c(Cl)c2)NC(=O)CN(C)C(=O)[C@@H]1Cc1ccc(C(F)(F)F)cc1` [PP0265] ([NMeL]I[Sar][Sar][NPrPhe(4-CF3)][Sar][hPhe(3-Cl-4-CF3)][Morpholine(3S-CO)][Ac5c][NMeGly(cPent)][NMeD]-Morpholide; lactam N-11) the “NRAS/KRAS (ratio of KD for GDP-bound NRAS wild-type to KD for KRAS)” value ([1]; KD ratio NRAS/KRAS) was “B (a compound having 3 or more and less than 10 is denoted as B)” and the “HRAS/KRAS (ratio of KD for GDP-bound HRAS wild-type to KD for KRAS)” value ([2]; KD ratio HRAS/KRAS) was “C (A compound having a KD ratio of 0.1 or more and less than 3 is denoted as C)”.
For `CC[C@H](C)[C@@H]1NC(=O)[C@@H]2CCCCCc3ccc(cc3)C[C@@H](C(=O)N(C)CC(=O)N[C@@H](CCc3ccc(C(F)(F)F)c(OC)c3)C(=O)N3CC4(CC4)C[C@H]3C(=O)NC3(CC(C)(C)C3)C(=O)N(C)[C@@H](C3CCCC3)C(=O)N(C)[C@H](C(=O)N(C)C)CC(=O)N2C)N2CC/C=C\C[C@@H](C2=O)N(C)C(=O)CN(C)C1=O` [PP3074], the “NRAS/KRAS (ratio of KD value with respect to GDP-bound NRAS wild-type protein to KD value with respect to KRAS)” value ([1]; KD ratio NRAS/KRAS, GDP-bound wild-type proteins) was “A (a compound having 10 or more and less than 20 is denoted as A)” and the “HRAS/KRAS (ratio of KD value with respect to GDP-bound HRAS wild-type protein to KD value with respect to KRAS)” value ([2]; KD ratio HRAS/KRAS, GDP-bound wild-type proteins) was “A (a compound having 10 or more and less than 20 is denoted as A)”.
`CC[C@H](C)[C@@H]1NC(=O)[C@H](CC)N(C)C(=O)C[C@@H](C(=O)N(C)C)N(C)C(=O)[C@H](C2CCCC2)N(C)C(=O)C2(CC(C)(C)C2)NC(=O)[C@@H]2C[C@@H](C)CN2C(=O)[C@H](CCc2ccc(C(F)(F)F)c(Cl)c2)NC(=O)CN(C)C(=O)[C@H](Cc2ccc(C)cc2)N2CC/C=C\C[C@@H](C2=O)N(C)C(=O)CN(C)C1=O` [PP1846] was tested, and the “NRAS/KRAS (ratio of KD value for NRAS to KD value for KRAS)” value ([1]; KD ratio) was “A (a compound having 10 or more and less than 20 is denoted as A)” and the “HRAS/KRAS (ratio of KD value for HRAS to KD value for KRAS)” value ([2]; KD ratio) was “B (a compound having 3 or more and less than 10 is denoted as B)”.
With `CCC[C@H]1C(=O)N[C@@H]([C@@H](C)CC)C(=O)N(C)CC(=O)N(C)[C@H]2C/C=C\CCN(C2=O)[C@@H](Cc2ccc(C(F)(F)F)cc2)C(=O)N(C)CC(=O)N[C@@H](CCc2cc(F)c(C(F)(F)F)c(F)c2)C(=O)N2C[C@H](OCC)C[C@H]2C(=O)NC2(CC(F)(F)C2)C(=O)N(C)[C@@H](C2CCCC2)C(=O)N(C)[C@H](C(=O)N(C)CC)CC(=O)N1C` [PP1735] the “NRAS/KRAS (ratio of KD value for NRAS to KD value for KRAS)” value ([1]; KD ratio) was “AA (a compound having 20 or more is denoted as AA)” and the “HRAS/KRAS (ratio of KD value for HRAS to KD value for KRAS)” value ([2]; KD ratio) was “A (a compound having 10 or more and less than 20 is denoted as A)”.
In the case of `CCO[C@@H]1C[C@H]2C(=O)NC3(CCC3)C(=O)N(C)[C@@H](C3CCCC3)C(=O)N(C)[C@H](C(=O)N(C)C)CC(=O)N(C)[C@@H](CC)C(=O)N[C@@H]([C@@H](C)CC)C(=O)N(C)CC(=O)N(C)[C@H]3CCCCCN(C3=O)[C@@H](Cc3ccc(F)cc3)C(=O)N(C)CC(=O)N[C@@H](CCc3cc(F)c(C(F)(F)F)c(F)c3)C(=O)N2C1` [PP1190], the “NRAS/KRAS (ratio of KD value with respect to NRAS to KD value with respect to KRAS)” value ([1]; KD ratio) is reported as “B (a compound having 3 or more and less than 10 is denoted as B)” and the “HRAS/KRAS (ratio of KD value with respect to HRAS to KD value with respect to KRAS)” value ([2]; KD ratio) is reported as “B (a compound having 3 or more and less than 10 is denoted as B)”.
In the case of `CCCOC[C@H]1C(=O)N[C@@H]([C@@H](C)OCC)C(=O)N(C)CC(=O)N(C)[C@H]2C/C=C\CCN(C2=O)[C@@H](Cc2ccc(C)cc2)C(=O)N(C)CC(=O)N[C@@H](CCc2cc(F)c(C(F)(F)F)c(F)c2)C(=O)N2C[C@@H](C)C[C@H]2C(=O)NC2(CC(C)(C)C2)C(=O)N(C)[C@@H](C2CCCC2)C(=O)N(C)[C@H](C(=O)N(C)CC)CC(=O)N1C` [PP2424], the “NRAS/KRAS (ratio of KD value with respect to NRAS to KD value with respect to KRAS)” value [1] is reported as “A (a compound having 10 or more and less than 20 is denoted as A)” and the “HRAS/KRAS (ratio of KD value with respect to HRAS to KD value with respect to KRAS)” value [2] is reported as “A (a compound having 10 or more and less than 20 is denoted as A)”.
In the case of `CCO[C@@H]1C[C@H]2C(=O)NC3(CCC3)C(=O)N(C)[C@@H](C3CCCC3)C(=O)N(CC)[C@H](C(=O)N(C)C)CC(=O)N(C)[C@@H](CC)C(=O)N[C@@H]([C@@H](C)CC)C(=O)N(C)CC(=O)N(C)[C@H]3CCCCN(C3=O)[C@@H](Cc3ccc(C(F)(F)F)cc3)C(=O)N(C)CC(=O)N[C@@H](CCc3cc(F)c(C(F)(F)F)c(F)c3)C(=O)N2C1` [PP0643], the “NRAS/KRAS (ratio of KD value with respect to GDP-bound NRAS wild-type protein to KD value with respect to KRAS)” value ([1]; KD ratio NRAS/KRAS) is reported as “C (A compound having a KD ratio of 0.1 or more and less than 3 is denoted as C)” and the “HRAS/KRAS (ratio of KD value with respect to GDP-bound HRAS wild-type protein to KD value with respect to KRAS)” value ([2]; KD ratio HRAS/KRAS) is reported as “B (a compound having 3 or more and less than 10 is denoted as B)”.
